Assay results taken from article PMC10247784, “Physiological activation of human and mouse bitter taste receptors by bile acids” (Communications Biology, 2023).

Tested on: HEK293T-Gα16gust44 cells transfected with empty vector (mock)
Experiment: Calcium imaging assay (FLIPR), empty vector control (mock)
Format: cell-based
Summary of the method: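 Fluo-4 calcium responses; ΔF/F corrected for mock transfection and buffer control; triplicate independent dose-response runs; p < 0.01 threshold.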

Structure (SMILES): C[C@H](CCC(=O)O)[C@H]1CC[C@H]2[C@@H]3CC[C@@H]4C[C@H](O)CC[C@]4(C)[C@H]3CC[C@]12C [Lithocholic Acid, lithocholic acid]
- Δ F/F (Mock, sheet Tas2r105, conc. 0,01 mM): -0.0002988
- Δ F/F (Mock, sheet Tas2r105, conc. 0,00001 mM): -0.01431
- Δ F/F (Mock, sheet Tas2r105, conc. 0,00003 mM): -0.01708
- Δ F/F (Mock, sheet Tas2r105, conc. 0,0001 mM): -0.01503
- Δ F/F (Mock, sheet Tas2r105, conc. 0,0003 mM): -0.01339
- Δ F/F (Mock, sheet Tas2r105, conc. 0,001 mM): -0.01175
- Δ F/F (Mock, sheet Tas2r105, conc. 0,003 mM): -0.00295
- Δ F/F (conc. 0,00003 mM, Mock (sheet TAS2R1)): -7.475e-5
- Δ F/F (conc. 0,0001 mM, Mock (sheet TAS2R1)): -0.001646
- Δ F/F (conc. 0,0003 mM, Mock (sheet TAS2R1)): -0.002463
- Δ F/F (conc. 0,001 mM, Mock (sheet TAS2R1)): -0.001163
- Δ F/F (conc. 0,003 mM, Mock (sheet TAS2R1)): -0.0001447
